Where “and” joins values, the source holds several entries; their conditions need not be identical. Equal entries are not always repeated.
Tests used:
Conditions in all cases: incubation time: 72 h
[1] = system: HCC1599; assay: drug sensitivity score (DSS), CellTiter-Blue viability (DSS (AUC-based score)); higher = stronger viability inhibition; extreme values may be limits of the assay
Description: (§1)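 DSRT with the CellTiter-Blue (resazurin reduction) viability readout, fluorescence 560/590 nm, 72 h incubation. Plates were normalised to DMSO and benzethonium chloride controls. DSS is computed from the area under the fitted dose-response curve (5 or 9 concentrations).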

[2] = system: MFM-223; assay: as above
Description: as §1

[3] = system: MDA-MB-231; assay: as above
Description: as §1

[4] = system: HCC1937; assay: as above
Description: as §1

[5] = system: MDA-MB-436; assay: as above
Description: as §1

[6] = system: CAL-148; assay: as above
Description: as §1

[7] = system: DU-4475; assay: as above
Description: as §1

[8] = system: CAL-51; assay: as above
Description: as §1

[9] = system: HDQ-P1; assay: as above
Description: as §1

[10] = system: MDA-MB-468; assay: as above
Description: as §1

[11] = system: SK-BR-3; assay: as above
Description: as §1

[12] = system: CAL-85-1; assay: as above
Description: as §1

[13] = system: HCC1143; assay: as above
Description: as §1

[14] = system: CAL-120; assay: as above
Description: as §1

[15] = system: MDA-MB-453; assay: as above
Description: as §1

[16] = system: Hs578T; assay: as above
Description: as §1

[17] = system: BT-474; assay: as above
Description: as §1

[18] = system: BT-549; assay: as above
Description: as §1

[19] = system: MDA-MB-436; assay: normalised viability (% of control), CellTiter-Blue; higher = more viable cells (about 100 = DMSO control)
In short: (§2)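 Breast cancer cell lines were treated for 72 h in 384-well format and measured by CellTiter-Blue fluorescence at 560/590 nm. Results were normalised per plate to vehicle (100) and a positive kill control (0). The entry is normalised viability at a single listed concentration of the series.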

[20] = system: DU-4475; assay: as above
In short: as §2

[21] = system: CAL-51; assay: as above
In short: as §2

[22] = system: SK-BR-3; assay: as above
In short: as §2

[23] = system: HCC1143; assay: as above
In short: as §2

[24] = system: MDA-MB-453; assay: as above
In short: as §2

[25] = system: Hs578T; assay: as above
In short: as §2

[26] = system: BT-474; assay: as above
In short: as §2

Row | SMILES | drug sensitivity score [1] | drug sensitivity score [2] | drug sensitivity score [3] | drug sensitivity score [4] | drug sensitivity score [5] | drug sensitivity score [6] | drug sensitivity score [7] | drug sensitivity score [8] | drug sensitivity score [9] | drug sensitivity score [10] | drug sensitivity score [11] | drug sensitivity score [12] | drug sensitivity score [13] | drug sensitivity score [14] | drug sensitivity score [15] | drug sensitivity score [16] | drug sensitivity score [17] | drug sensitivity score [18] | normalised viability ([19]; 100 nM) | normalised viability ([20]; 10 nM) | also measured
1 | Cc1c(N)nc([C@H](CC(N)=O)NC[C@H](N)C(N)=O)nc1C(=O)N[C@H](C(=O)N[C@H](C)[C@@H](O)[C@H](C)C(=O)N[C@H](C(=O)NCCc1nc(-c2nc(C(=O)NCCC[S+](C)C)cs2)cs1)[C@@H](C)O)[C@@H](OC1OC(CO)C(O)C(O)C1OC1OC(CO)C(O)C(OC(N)=O)C1O)c1cnc[nH]1 (stereo not given in full) [Bleomycin] | 0 | 0 | 6.41 | 9.75 | 4.58 | 0 | 0 | 0.892 | 0 | 0 | 0 | 0 | 9.95 | 3.15 | 0 | 11.3 | 0 | 13.6 | 88.2% | 120% | normalised viability ([21]; 10 nM): 98.2%; normalised viability ([22]; 100 nM): 90.8%; normalised viability ([23]; 100 nM): 74.7%; normalised viability ([24]; 10 nM): 102%; normalised viability ([25]; 100 nM): 68.7%; normalised viability ([26]; 100 nM): 96%
2 | Cc1cc2c(F)c(Oc3ncnn4cc(OC[C@@H](C)O)c(C)c34)ccc2[nH]1 [Brivanib] | 0 | 0 | 0 | 0 | 0 | 0 | 0 | 0 | 0 | 0 | 0 | 0 | 0 | 0 | 0 | 0 | 0 | 0 |  |  | normalised viability ([19]; 10 nM): 104%; normalised viability ([20]; 1 nM): 96.3%; normalised viability ([21]; 1 nM): 91.8%; normalised viability ([22]; 10 nM): 75.5%; normalised viability ([23]; 10 nM): 78.8%; normalised viability ([24]; 1 nM): 102%; normalised viability ([25]; 10 nM): 88.9%; normalised viability ([26]; 10 nM): 102%
3 | CCCCCOC(=O)Nc1nc(=O)n([C@@H]2O[C@H](C)[C@@H](O)[C@H]2O)cc1F [Capecitabine] | 0 | 0 | 0 | 0 | 0 | 0 | 0 | 0 | 0 | 0 |  | 0 | 0 | 0 |  | 0 | 0 | 0 | 95.8% and 95.6% | 97.4% and 107% | normalised viability ([21]; 10 nM): 110% and 102%; normalised viability ([22]; 100 nM): 77.5% and 96.3%; normalised viability ([24]; 10 nM): 94.8% and 93.2%; normalised viability ([25]; 100 nM): 83.7% and 96.8%; normalised viability ([26]; 100 nM): 114% and 99.9%
4 | CC(C)C[C@H](NC(=O)[C@H](CCc1ccccc1)NC(=O)CN1CCOCC1)C(=O)N[C@@H](Cc1ccccc1)C(=O)N[C@@H](CC(C)C)C(=O)[C@@]1(C)CO1 [Carfilzomib] | 7.66 | 26.4 | 25.5 | 27 | 20.5 | 18.8 | 22.8 | 19.6 | 23.7 | 26.8 | 23.7 | 22.2 | 20.4 | 23.9 | 27.8 | 27.6 | 16.1 | 29.2 |  |  | normalised viability ([19]; 10 nM): 73.5%; normalised viability ([20]; 1 nM): 93.5%; normalised viability ([21]; 1 nM): 106%; normalised viability ([22]; 10 nM): 33.2%; normalised viability ([23]; 10 nM): 53.4%; normalised viability ([24]; 1 nM): 96.8%; normalised viability ([25]; 10 nM): 13.8%; normalised viability ([26]; 10 nM): 87.2%
5 | Nc1nc(Cl)nc2c1ncn2[C@@H]1O[C@H](CO)[C@@H](O)[C@@H]1F [Clofarabine] | 2.01 | 0 | 12 | 15.5 | 11.8 | 11.3 | 13.3 | 11.1 | 0 | 12.5 | 15.3 | 10.1 | 9.25 | 11.6 | 9.02 | 7.51 | 0 | 10.6 | 77% | 105% | normalised viability ([21]; 10 nM): 111%; normalised viability ([22]; 100 nM): 65%; normalised viability ([23]; 100 nM): 79.7%; normalised viability ([24]; 10 nM): 103%; normalised viability ([25]; 100 nM): 84.6%; normalised viability ([26]; 100 nM): 99.2%
6 | CCN(CC)CCOc1ccc(C(=C(Cl)c2ccccc2)c2ccccc2)cc1 [Clomifene] | 0 | 2.02 | 5.53 | 1.23 | 2.07 | 0 | 1.29 | 0 | 1.07 | 4.91 | 0 | 1.08 | 0 | 3.83 | 3.38 | 0 | 2.94 | 3.64 | 114% | 103% | normalised viability ([21]; 10 nM): 97.5%; normalised viability ([22]; 100 nM): 93.4%; normalised viability ([23]; 100 nM): 88.5%; normalised viability ([24]; 10 nM): 103%; normalised viability ([25]; 100 nM): 95.7%; normalised viability ([26]; 100 nM): 116%
7 | C[C@@H]1C[C@H]2[C@@H]3CCC4=CC(=O)C=C[C@]4(C)[C@@]3(F)[C@@H](O)C[C@]2(C)[C@@]1(O)C(=O)CO [Dexamethasone] | 0 | 0 | 0 | 0 | 0 | 0 | 0 | 0 | 0 | 0 | 0 | 0 | 0 | 0 | 7.98 | 0 | 0 | 0 | 94.9% | 97.2% | normalised viability ([21]; 10 nM): 94.9%; normalised viability ([22]; 100 nM): 70.3%; normalised viability ([23]; 100 nM): 83.4%; normalised viability ([24]; 10 nM): 93.3%; normalised viability ([25]; 100 nM): 97.2%; normalised viability ([26]; 100 nM): 115%
8 | CC(C)C(=O)Nc1ccc([N+](=O)[O-])c(C(F)(F)F)c1 [Flutamide] | 0 | 0 | 0 | 0 | 0 | 0 | 0 | 0 | 0 | 0 | 0 | 0 | 0 | 0 | 0 | 0 | 0 | 0 | 105% | 92.6% | normalised viability ([21]; 10 nM): 112%; normalised viability ([22]; 100 nM): 93.3%; normalised viability ([23]; 100 nM): 85.3%; normalised viability ([24]; 10 nM): 98.8%; normalised viability ([25]; 100 nM): 92%; normalised viability ([26]; 100 nM): 115%
9 | COc1cc2c(Oc3ccc(NC(=O)C4(C(=O)Nc5ccc(F)cc5)CC4)cc3F)ccnc2cc1OCCCN1CCOCC1 [Foretinib] | 0 | 9.7 | 0 | 0 | 3.35 | 2.11 | 1.75 | 4.07 | 4.98 | 0 | 0.269 | 0 | 0 | 1.14 | 0 | 0.649 | 0 | 0 |  |  | normalised viability ([19]; 10 nM): 91.8%; normalised viability ([20]; 1 nM): 96.6%; normalised viability ([21]; 1 nM): 93.2%; normalised viability ([22]; 10 nM): 78.8%; normalised viability ([23]; 10 nM): 99.9%; normalised viability ([24]; 1 nM): 91.6%; normalised viability ([25]; 10 nM): 97.5%; normalised viability ([26]; 10 nM): 109%
10 | NC(=O)NO [Hydroxyurea] | 0 | 0 | 0 | 2.94 | 0 | 0 | 0 | 0 | 0 | 0 | 0 | 0 | 0 | 0 | 0 | 0 | 0 | 0 |  |  | normalised viability ([19]; 1000 nM): 106%; normalised viability ([20]; 100 nM): 119%; normalised viability ([21]; 100 nM): 111%; normalised viability ([22]; 1000 nM): 101%; normalised viability ([23]; 1000 nM): 106%; normalised viability ([24]; 100 nM): 101%; normalised viability ([25]; 1000 nM): 98.2%; normalised viability ([26]; 1000 nM): 115%
11 | O=NN(CCCl)C(=O)NC1CCCCC1 [Lomustine] | 0 | 0 | 0 | 0 | 0 | 0 | 0 | 0 | 0 | 0 | 0 | 0 | 0 | 0 | 0 | 0 | 0 | 0 | 102% | 109% | normalised viability ([21]; 10 nM): 115%; normalised viability ([22]; 100 nM): 97.5%; normalised viability ([23]; 100 nM): 93.2%; normalised viability ([24]; 10 nM): 95.5%; normalised viability ([25]; 100 nM): 94.6%; normalised viability ([26]; 100 nM): 111%
12 | O=C(O)CC[C@H]1CC[C@@](c2cc(F)ccc2F)(S(=O)(=O)c2ccc(Cl)cc2)CC1 [MK-0752] | 2.93 | 0 | 0 | 0 | 0 | 0 | 0 | 0 | 0 | 0 | 0 | 0 | 0 | 0 | 0 | 0 | 0 | 0 |  |  | normalised viability ([19]; 10 nM): 103%; normalised viability ([20]; 1 nM): 105%; normalised viability ([21]; 1 nM): 96.3%; normalised viability ([22]; 10 nM): 93.3%; normalised viability ([23]; 10 nM): 98%; normalised viability ([24]; 1 nM): 111%; normalised viability ([25]; 10 nM): 88.6%; normalised viability ([26]; 10 nM): 114%
13 | NC1(c2ccc(-c3nc4ccn5c(=O)[nH]nc5c4cc3-c3ccccc3)cc2)CCC1 [MK-2206] | 0 | 4.16 | 0 | 0 | 2.37 | 1.65 | 0 | 1.04 | 0 | 2.36 | 6.38 | 0 | 0 | 0 | 4.04 | 0 | 3.69 | 0 |  |  | normalised viability ([19]; 10 nM): 107%; normalised viability ([20]; 1 nM): 107%; normalised viability ([21]; 1 nM): 100%; normalised viability ([22]; 10 nM): 79%; normalised viability ([23]; 10 nM): 121%; normalised viability ([24]; 1 nM): 117%; normalised viability ([25]; 10 nM): 98.5%; normalised viability ([26]; 10 nM): 112%
